Measurements as given in patent US11857601B2, “Pharmaceutical composition for cancer treatment comprising fusion protein including IL-2 protein and CD80 protein and anticancer drug” (GI INNOVATION, INC., priority 2020, dated 2024).
Marks after values point to notes of the source that are not given here.

Key:
CT-26 cancer cell line = assay: mGI101 in mice transplanted with CT-26 (Exp. Ex. 15)
Description: BALB/c mice (female, 7-week-old) purchased from Orient Bio were subjected to an acclimation period of 7 days. Then, 5×10^6 cells of CT-26 cancer cell line (ATCC, USA) were mixed with 0.05 ml of […] ™ matrix phenol red-free (BD), and allotransplantation of the mixture was performed by subcutaneous administration at 0.1 ml in the right dorsal region of the mice. A certain period of time after the cancer cell transplantation, the tumor volume was measured and subjects that reached about 28 mm^3 were selected, and then the selected mice were grouped evenly based on tumor size and body weight, each group including 10 mice. Thereafter, using a disposable syringe (31G, 1 ml), hIgG4 was administered at a dose of 6 mg/kg to a negative control. For experimental groups, mGI101 at a dose of 3 mg/kg, 6 mg/kg, or 12 mg/kg was administered intravenously thereto. A total of three administrations were given once every three days after the first administration. The tumor size was measured daily.

[1] = system: CT26 (mouse colon carcinoma) cells; assay: mGI-101 and Galunisertib in CT26 allotransplanted tumor model; type: in vivo, BALB/cAnHsd mice; conditions: mean ± SD, mGI-101 3 mg/kg IP, Galunisertib 75 mg/kg PO
Description: 6-week-old male BALB/cAnHsd mice were purchased and used for the test.
The tumor size was measured three times a week for 3 weeks from the day of start of administration of the test substance. The major axis and minor axis of the tumor were measured using a caliper, and the tumor size (tumor volume, TV) was calculated using the following equations. TV (mm^3)=(W^2×L)/2 [Equation 1]

4T1 cells = assay: mGI-101 and Abemaciclib in 4T1 allotransplanted tumor model; type: in vivo, BALB/c mice; conditions: 11 mice per group
Description: (§1) 4T1 cells were purchased from ATCC (USA) and cultured in RPMI1640 medium (Gibco) containing 10% FBS (Gibco) and 1% antibiotic/antifungal agent (Gibco). The cultured cells were harvested using trypsin (Gibco) and then suspended in PBS. In order to establish an allotransplanted tumor model, 1×10^5 of 4T1 cells were subcutaneously injected into the back of BALB/c female mice (8-week-old).
A certain period of time after cell inoculation of the tumor grafts of the mice, the tumor volume was measured for animals with no abnormalities in the health condition of the animals, and the mice were randomly selected and assigned, each group including 11 mice.
(§2) The death of the mouse, the type of general symptoms, the date of onset, and the severity of symptoms were observed once a day during the test period, and recorded for each subject.
(§3) The tumor volume before administration of each subject was set as the value measured at the time of grouping, and the anti-tumor efficacy was evaluated as compared with the vehicle control.
(§4) All statistical calculations were performed using Prism 8.0 (Graph Pad Software Inc, USA). The comparison of tumor volume measurements was made through two-way analysis of variance followed by Tukey's multiple comparison test. A p value of less than 0.05 was considered significant.

CT26 cells = assay: mGI-101 and Axitinib in CT26 allotransplanted tumor model; conditions: mGI-101 3 mg/kg IP, Axitinib 30 mg/kg PO;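 also: subcutaneous CT26 syngeneic tumors in male BALB/c mice, dosing started once tumors were near 50 mm^3, drugs given orally or intraperitoneally for up to 3 weeks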
Description: Mouse-derived colorectal cancer cells, CT26 (Mus musculus, Colon adenocarcinoma), and mouse-derived lung cancer cells, LL/2 (Mus musculus, Lung adenocarcinoma), were purchased from ATCC (USA) and used for the test. The cells to be used for the test were thawed, mixed with RPMI1640 (A1049101, Thermofisher scientific) medium containing 10% FBS (fetal bovine serum, Gibco, 10082-147), and then placed in a cell culture flask, and cultured in a 37° C., 5% CO2 incubator. The cells were washed with PBS, and then the cells were isolated using Trypsin-EDTA (15090, Gibco), and centrifugation (125×g, 5 minutes) was performed to discard the supernatant, and then the cells were suspended in a new medium to obtain the cell suspension. The viability of the cells was identified, and then a cell line was prepared by diluting in a medium to a concentration of 5.0×10^6 cells/mL.
6-week-old male BALB/cAnHsd mice or C57BL/6NHsd mice were purchased and used for the test. After the end of the acclimation period of 7 days, the cells were transplanted into healthy animals. The cell suspension (5×10^6 cells/mL) was dispensed, and filled into a disposable syringe, and transplantation of the suspension was performed by subcutaneous administration at 0.1 mL/head in the right dorsal region of the animals. General symptoms were observed once a day during the engraftment and growth period after cell line transplantation.
After the inoculation of the cell line was performed, when the tumor size at the site to which the cell line was transplanted reached about 50 mm^3, the tumor size of each group was distributed as uniformly as possible according to the ranked tumor size.
The test substance was administered orally or intraperitoneally, and administered for 3 weeks depending on the composition of the test group. In the case of oral administration, the animals were fixed with the cervical spine skin fixation method, and administered directly into the stomach using a sonde for oral administration. In the case of intraperitoneal administration, the animals were fixed with the cervical spine skin fixation method, and administered intraperitoneally using a syringe equipped with a 26 gauge needle. The administration rate was not to exceed 200 μl/min.
Syngeneic model was prepared by subcutaneously transplanting the CT26 cell line into Balb/c mice, and then the test substance was administered to evaluate the anticancer effect.

Renca cells = assay: mGI-101 and Lenvatinib in Renca allotransplanted tumor model; type: in vivo, BALB/c mice
Description: as §1, with “Renca” for “4T1”, “5×10^6 Renca” for “1×10^5 of 4T1”
A certain period of time after cell inoculation of the tumor grafts of the mice, the tumor volume was measured for animals with no abnormalities in the health condition of the animals, and the mice were randomly selected and assigned, each group including 10 mice.
as §2, §3, §4

[2] = system: immune cells in cancer tissues; assay: Immune cell analysis in CT-26 cancer tissue (FACS); type: in vivo, BALB/c mice
Excerpt: The mice of each group in Experimental Example 16.1 were sacrificed when the tumor volume reached an average of 200 mm^3, and cancer tissues were collected.

IL-2Rβ = biological target: T1, IL-2Rβ (Homo sapiens, UniProt P14784); assay: Binding to IL-2Rβ (Octet, Ni-NTA biosensor); conditions: as compared with GI101w and Proleukin
T1 construct: purchased Acro CD2-H5221
T1 sequence (P14784 27-551): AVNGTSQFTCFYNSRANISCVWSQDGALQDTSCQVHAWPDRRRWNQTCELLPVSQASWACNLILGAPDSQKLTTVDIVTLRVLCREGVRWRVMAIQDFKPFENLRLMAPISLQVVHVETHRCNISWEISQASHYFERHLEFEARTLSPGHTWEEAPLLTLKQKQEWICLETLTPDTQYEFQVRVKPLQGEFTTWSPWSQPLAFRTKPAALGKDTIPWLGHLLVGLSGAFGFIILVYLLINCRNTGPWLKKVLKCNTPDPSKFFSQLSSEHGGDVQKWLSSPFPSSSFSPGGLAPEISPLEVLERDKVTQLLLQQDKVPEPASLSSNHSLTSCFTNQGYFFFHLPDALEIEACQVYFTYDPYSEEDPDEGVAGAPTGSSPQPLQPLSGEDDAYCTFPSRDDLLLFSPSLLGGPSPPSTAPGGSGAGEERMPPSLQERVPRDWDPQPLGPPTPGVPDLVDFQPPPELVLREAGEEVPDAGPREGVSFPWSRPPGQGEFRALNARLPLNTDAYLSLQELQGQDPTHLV
Description: The binding ability for IL-2Rα was measured using the AR2G biosensor, and the binding ability for IL-2Rβ was measured using the Ni-NTA biosensors (Nickel charged Tris-NTA, Ni-NTA Biosensors, ForteBio, 18-5101).
Meanwhile, a ligand (IL-2Rβ-His Tag, Acro, Cat: CD2-H5221) to be attached to the Ni-NTA biosensor was diluted with 1×Ni-NTA kinetic buffer to a concentration of 5 μg/ml. The diluted ligand was loaded on the Ni-NTA biosensor for 600 seconds and fixed.
Thereafter, GI101, GI101w, or Proleukin (Novartis, hIL-2), at various concentrations, to be attached to the ligand was loaded thereon for 300 seconds. Then, binding thereof was measured and dissociation thereof was also measured for 300 seconds. Binding kinetics analysis was performed using Octet Data Analysis HT software ver. 10 provided by Pall Corporation. The results are illustrated in FIGS. 22 to 24.

[3] = mGI-101 twice a week (BIW), Lenvatinib daily, 10 mice per group

With “mGI101: fusion protein: mouse CD80, Ig hinge, Fc domain, linker, IL-2 variant (2M) (R38A, F42A); SEQ ID NO: 15” as the substance, how does the Tumor growth inhibition (CT-26 cancer cell line; 6 mg/kg and 12 mg/kg i.v., three administrations, vs negative control (hIgG4)) read?
Its Tumor growth inhibition is “significant tumor growth inhibition”.

What about the survival rate (CT-26 cancer cell line; 6 mg/kg i.v., vs negative control) of the same substance?
The survival rate was “significant improvement”.

And the Tumor size ([1]; Day 0)?
The Tumor size was 61.96 ± 11.81 mm^3.

And the Tumor growth inhibition ([1]; Day 2)?
The Tumor growth inhibition was 21.91 ± 53.41%.

What about the Tumor size ([1]; Day 2) of the same substance?
Its Tumor size is 177.83 ± 78.22 mm^3.

And the Tumor growth inhibition ([1]; Day 4)?
Its Tumor growth inhibition is 46.07 ± 35.1 %.

What about the Tumor size ([1]; Day 4) of the same substance?
Its Tumor size is 224.56 ± 105.31** mm^3.

What about the Tumor growth inhibition ([1]; Day 7) of the same substance?
The Tumor growth inhibition was 46.48 ± 36.39 (9) %.

What about the Tumor size ([1]; Day 7) of the same substance?
Its Tumor size is 291.81 ± 155.23 (9)* mm^3.

And the “number of mice with tumor growth inhibition rate of 30% or more” value (4T1 cells)?
Its value is 3 mice.

What about the “number of mice with tumor growth inhibition rate of 50% or more” value (4T1 cells) of the same substance?
Its value is 1 mice.

And the “number of mice with tumor growth inhibition rate of 80% or more” value (4T1 cells)?
Its value is “no mouse”.

What about the Tumor size (CT26 cells; Day 0, mean ± SD) of the same substance?
Its Tumor size is 63.53 ± 11.56 mm^3.

And the Tumor growth inhibition (CT26 cells; Day 5, mean ± SD)?
The Tumor growth inhibition was 58.32 ± 24.95 %.

And the Tumor size (CT26 cells; Day 5, mean ± SD)?
The Tumor size was 186.53 ± 76.61 mm^3.

And the Tumor growth inhibition (CT26 cells; Day 7, mean ± SD)?
Its Tumor growth inhibition is 62.12 ± 38.89 %.

What about the Tumor size (CT26 cells; Day 7, mean ± SD) of the same substance?
Its Tumor size is 249.93 ± 149.08 mm^3.

And the Tumor growth inhibition (CT26 cells; Day 9, mean ± SD)?
Its Tumor growth inhibition is 62.87 ± 34.95 %.

And the Tumor size (CT26 cells; Day 9, mean ± SD)?
The Tumor size was 290.71 ± 165.17 mm^3.

What about the Tumor growth inhibition (CT26 cells; Day 12, mean ± SD) of the same substance?
Its Tumor growth inhibition is 66.48 ± 29.50 %.

What about the Tumor size (CT26 cells; Day 12, mean ± SD) of the same substance?
Its Tumor size is 352.46 ± 195.64 mm^3.

What about the Tumor growth inhibition (CT26 cells; Day 14, mean ± SD) of the same substance?
The Tumor growth inhibition was 65.87 ± 29.12 %.

And the Tumor size (CT26 cells; Day 14, mean ± SD)?
Its Tumor size is 520.04 ± 307.47** mm^3.

And the Tumor growth inhibition (CT26 cells; Day 16, mean ± SD)?
Its Tumor growth inhibition is 52.36 ± 41.33 %.

And the Tumor size (CT26 cells; Day 16, mean ± SD)?
The Tumor size was 962.28 ± 634.90** mm^3.

What about the Tumor growth inhibition (CT26 cells; Day 19, mean ± SD) of the same substance?
Its Tumor growth inhibition is 41.48 ± 52.17 %.

What about the Tumor size (CT26 cells; Day 19, mean ± SD) of the same substance?
Its Tumor size is 1395.48 ± 982.61** mm^3.

And the Tumor growth inhibition (CT26 cells; Day 21, mean ± SD)?
Its Tumor growth inhibition is 44.57 ± 46.55 %.

What about the Tumor size (CT26 cells; Day 21, mean ± SD) of the same substance?
Its Tumor size is 1987.45 ± 1320.62**** mm^3.

And the “number of mice with tumor growth inhibition rate of 30% or more” value (Renca cells; mGI-101 alone once a week)?
The value was 5 mice.

And the “number of mice with tumor growth inhibition rate of 50% or more” value (Renca cells; mGI-101 alone once a week)?
The value was 2 mice.

And the “number of mice with tumor growth inhibition rate of 80% or more” value (Renca cells; mGI-101 alone once a week)?
The value was 1 mice.

And the “number of mice with tumor growth inhibition rate of 30% or more” value (Renca cells; [3])?
Its value is 3 mice.

What about the “number of mice with tumor growth inhibition rate of 50% or more” value (Renca cells; [3]) of the same substance?
The value was 1 mice.

And the “number of mice with tumor growth inhibition rate of 80% or more” value (Renca cells; [3])?
The value was “no mouse”.

How did the “CD8+ T cells in cancer tissue” value ([2]; 0.1 mg/kg, compared with anti-PD-1 antibody alone 5 mg/kg) turn out when “GI101: fusion protein: human CD80 fragment, Ig hinge, Fc domain, linker, IL-2 variant (2M) (R38A, F42A); SEQ ID NO: 9” was run?
Its value is “significant increase”.

And the M1 macrophages ([2]; 0.1 mg/kg, vs negative control and anti-PD-1 antibody alone)?
Its M1 macrophages is “increase”.

What about the “level of CD86 expression in macrophages and dendritic cells” value ([2]; all GI101 groups) of the same substance?
Its value is “increased level”.

What about the “level of expression of IFN-γ in T cells” value ([2]; all GI101 groups, vs negative control) of the same substance?
Its value is “significantly increased level”.

What about the “binding ability for IL-2Rβ” value (IL-2Rβ) of the same substance?
The value was “high binding ability”.
